Source: US8071641B2 (Yissum Research Development Company of the Hebrew …, priority 2004, dated 2011)
Where “and” joins values, the source holds several entries; their conditions need not be identical. Equal values may be shown once.

Experiments:
[1] = system: human leukocytes; conditions: cited from earlier work
[2] = system: islets of Langerhans; test: Histopathology of pancreatic islets (insulitis) in NOD mice; type: in vivo
Excerpt: (§1) Mice injected with vehicle alone as well as untreated mice served as controls.
Histopathology: Twenty weeks after onset of treatment mice were sacrificed. Pancreatic tissue samples were fixed in 4% buffered formation, embedded in paraffin, sectioned (5 μm thickness) and stained with hematoxylin and eosin. The stained pancreatic sections were observed under a microscope for infiltration of mononuclear lymphocytes into the islets of Langerhans (insulitis). The sections were scored by two uninformed observers as follows: 0, no cell infiltration; 1, cell infiltration in <20% of islet area; 2, cell infiltration in <50% of islet area; cell infiltration in <75% of islet area; and 4, cell infiltration in 90-100% of islet area.

[3] = system: mice; conditions: topical administration; cited from earlier work
[4] = system: male NOD mice; test: Diabetes induced in male NOD mice by transfer of spleen cells from diabetic female mice; type: in vivo
Description: Experimental design—Male NOD mice were irradiated (650 cGy), 24 hrs prior to intravenous injection of spleen cells (25-28×10^6) derived from female diabetic mice.
Intraperitoneal glucose tolerance tests (IPGTT)—see Example 1 above. Blood glucose levels above 140 mg/dl were considered diabetic by testing blood glucose at t-0, 60 min following IP injection of 1 gr/Kg body weight of glucose [Glucometer Elite apparatus (Bayer Diagnostics, ELKART, IN)]. Alternatively, urine samples were taken twice a week from diabetic mice for testing glucose levels. Urine glucose levels above 1000 mg/dl as determined by combi 9 Teststrips (Medi-Test, Macherey-Nagel, Duren, Germany) were considered diabetic;

[5] = system: mice; conditions: orally at doses of up to 10 mg/kg; cited from earlier work
[6] = system: mouse peritoneal macrophages; conditions: macrophages activated by LPS and IFNγ; cited from earlier work
[7] = system: INFγ; test: Plasma INFγ level in NOD mice by ELISA; type: in vivo; conditions: 5 mg/kg i.p., mean of 5 mice
Description: as §1
Plasma INFγ: INFγ is associated with the progression of diabetes in NOD mice (Schloot, N. C., Diabetes Metab. Res. Rev. 18:64, 2002; Weiss et al., Cytokine 19:85, 2002; Braz, J., Med. Biol. Res. 35: 1347, 2000).
Plasma INFγ levels in mice were determined by ELISA kit (B.D Bioscience San Diego U.S.A).

[8] = target: peripheral receptors CB2 (Homo sapiens, UniProt P34972); conditions: cited from earlier work
[9] = system: NOD mice; test: Spontaneous diabetes in NOD mice (glucosuria, IPGTT); type: in vivo
Excerpt: Animals: Non-obese diabetic (NOD) mice develop spontaneous autoimmune diabetes and are commonly used as an experimental model for human insulin-dependent diabetes mellitus [Miazaki A., Clin. Exp. Immunol. 60:622 (1998); Harada, M., Exp. Clin. Endocrinol. 89: 251 (1987)].
Six to twelve week old NOD/Ltj female mice were fed standard laboratory animal chow ad libitum and were kept in Specific Pathogen Free (SPF) animal house facility.
as §1
Glucosuria analysis: The severity of diabetes was determined according to glucosuria, which was measured using Combi 9 Teststrips (Medi-Test, Macherey-Nagel, Duren, Germany).
Intraperitoneal glucose tolerance tests (IPGTT): Blood samples were obtained from the paraorbital plexus at 0 and 60 minutes after administration of an i.p. glucose injection at a dose of 1 g/kg body weight. Plasma glucose levels were determined using Glucose Analyzer 2 (Beckman Instruments). A glucose level above 15 mmol/liter at the 60 min time point was considered as a positive IPGTT.

[10] = high concentrations (5-24 pg/ml)
[11] = 20 weeks after onset of treatment, of 54 scored fields
[12] = 5 mg/kg CBD, 20 IP injections, 5 times/week, of 15 mice

peripheral receptors CB2, sequence (P34972 whole entry): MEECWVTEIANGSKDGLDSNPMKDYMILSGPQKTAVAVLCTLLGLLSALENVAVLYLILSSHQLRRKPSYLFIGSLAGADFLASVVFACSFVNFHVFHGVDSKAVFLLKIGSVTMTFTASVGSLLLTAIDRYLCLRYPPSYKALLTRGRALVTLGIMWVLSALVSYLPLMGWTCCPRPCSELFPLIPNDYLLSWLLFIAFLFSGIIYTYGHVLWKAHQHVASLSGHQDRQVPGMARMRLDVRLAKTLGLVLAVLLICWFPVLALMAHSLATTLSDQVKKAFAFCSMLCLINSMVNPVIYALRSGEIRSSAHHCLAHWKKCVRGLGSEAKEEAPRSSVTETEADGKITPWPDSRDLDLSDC

C=C(C)[C@@H]1CCC(C)=C[C@H]1c1c(O)cc(CCCCC)cc1O [CBD, Cannabidiol]
IFNγ synthesis [1, 10]: completely blocked | IL-1 production [1, 10]: decreased | IL-2 secretion [1, 10]: did not affect | TNFα production [1, 10]: decreased | IFNγ production ([1]; low concentrations): increased | islets showing destruction ([2]; 1/54): 1.9% | islets showing total infiltration ([2]; 6/54): 11% | protected islets (intact or only partially infiltrated) ([2]; 20 week period, 47/54): 87% | No. of fully destroyed islets [2, 11]: 1 | No. of intact islets [2, 11]: 26 | No. of partially infiltrated islets [2, 11]: 21 | No. of totally infiltrated islets [2, 11]: 6 | only partially infiltrated pancreatic islets ([2]; 21/54): 39% | intact pancreatic islets ([2]; 26/54): 48% | TPA-induced erythema [3]: reduce | Total % of diabetic mice ([4]; 5 mg/kg CBD, 20 IP injections, 5 times/week): 53% | No. of diabetic mice (urine glucose above 1000 mg/dl) [4, 12]: 6 | No. of mice w/ latent diabetes (blood glucose above 140 mg/dl 60 minutes following IP glucose injection) [4, 12]: 2 | suppression of the appearance of diabetes ([4]; male NOD mice injected with splenocytes from diabetic female NOD mice): about half | PBQ-induced writhing [5]: inhibited | nitric oxide (NO) produced [6]: inhibited | INFγ (pg/ml) ± SD [7]: 43 pg/ml and 43 ± 21*^2 pg/ml | binding to peripheral receptors CB2 [8]: does not bind | onset of symptoms in the CBD-treated diabetic mice ([9]; compared to untreated and vehicle-treated controls): substantially delayed | rate of protection ([9]; compared with controls): greater than 65% | Diabetes appearance (weeks), mean and range of weeks of first positive diagnosis ([9]; female NOD mice, 5 mg/kg i.p.): 18.4 (15-22) weeks | Diabetes incidence (%) ([9]; female NOD mice, 5 mg/kg i.p., 5 injections per week, 10-23 injections): 21.7% | No. of diabetic mice ([9]; female NOD mice, 5 mg/kg i.p., 5 injections per week, 10-23 injections, of 23 mice): 5
